Data taken from ChEMBL document CHEMBL2407081, “Discovery of potent, isoform-selective inhibitors of histone deacetylase containing chiral heterocyclic capping groups and a N-(2-aminophenyl)benzamide binding unit” (J Med Chem, 2013).

Legend:
[1] = target: T1, Protein deacetylase HDAC6 (Homo sapiens, UniProt Q9UBN7); experiment: Inhibition of recombinant His-tagged HDAC6 (unknown origin) using Fluor-de-Lys SIRT1 as substrate incubated for 3 hrs prior to substrate addition measured after 60 mins by fluorescence plate reader analysis
T1 sequence (Q9UBN7 whole entry): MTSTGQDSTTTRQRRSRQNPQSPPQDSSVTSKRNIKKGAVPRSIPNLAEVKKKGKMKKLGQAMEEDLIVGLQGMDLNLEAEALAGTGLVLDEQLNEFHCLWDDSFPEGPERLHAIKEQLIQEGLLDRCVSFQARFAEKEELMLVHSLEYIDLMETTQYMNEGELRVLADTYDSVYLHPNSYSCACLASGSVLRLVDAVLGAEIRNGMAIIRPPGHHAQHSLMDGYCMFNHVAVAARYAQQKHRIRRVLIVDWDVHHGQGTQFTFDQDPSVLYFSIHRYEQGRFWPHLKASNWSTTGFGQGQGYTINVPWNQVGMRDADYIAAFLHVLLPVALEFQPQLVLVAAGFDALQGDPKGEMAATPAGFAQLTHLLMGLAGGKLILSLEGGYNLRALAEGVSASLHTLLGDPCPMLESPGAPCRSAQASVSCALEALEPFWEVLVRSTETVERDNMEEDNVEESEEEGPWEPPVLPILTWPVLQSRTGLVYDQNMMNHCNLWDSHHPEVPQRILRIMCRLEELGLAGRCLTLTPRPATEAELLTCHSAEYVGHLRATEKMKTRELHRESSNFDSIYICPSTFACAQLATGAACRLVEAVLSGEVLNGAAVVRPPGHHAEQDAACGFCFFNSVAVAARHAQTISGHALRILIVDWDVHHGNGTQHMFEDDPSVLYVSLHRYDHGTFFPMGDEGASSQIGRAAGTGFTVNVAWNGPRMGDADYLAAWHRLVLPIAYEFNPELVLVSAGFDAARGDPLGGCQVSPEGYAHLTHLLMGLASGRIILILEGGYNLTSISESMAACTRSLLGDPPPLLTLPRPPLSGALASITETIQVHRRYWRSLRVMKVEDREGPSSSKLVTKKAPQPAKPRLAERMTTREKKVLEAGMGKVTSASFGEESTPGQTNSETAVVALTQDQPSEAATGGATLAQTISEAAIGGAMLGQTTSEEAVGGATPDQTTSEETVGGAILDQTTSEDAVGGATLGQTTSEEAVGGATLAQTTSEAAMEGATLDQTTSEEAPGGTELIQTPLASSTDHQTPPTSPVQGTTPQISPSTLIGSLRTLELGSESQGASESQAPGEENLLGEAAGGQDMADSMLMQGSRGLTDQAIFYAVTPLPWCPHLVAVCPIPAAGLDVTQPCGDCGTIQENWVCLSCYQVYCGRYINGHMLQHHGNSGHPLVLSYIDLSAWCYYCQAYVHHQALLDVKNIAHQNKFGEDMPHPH

Histone deacetylase 2 = Histone deacetylase 2 (Homo sapiens, UniProt Q92769); experiment: Inhibition of recombinant His-tagged HDAC2 (1 to 488) (unknown origin) using MAL as substrate incubated for 3 hrs prior to substrate addition measured after 60 mins by fluorescence plate reader analysis
Chain of Histone deacetylase 2 (Q92769 whole entry): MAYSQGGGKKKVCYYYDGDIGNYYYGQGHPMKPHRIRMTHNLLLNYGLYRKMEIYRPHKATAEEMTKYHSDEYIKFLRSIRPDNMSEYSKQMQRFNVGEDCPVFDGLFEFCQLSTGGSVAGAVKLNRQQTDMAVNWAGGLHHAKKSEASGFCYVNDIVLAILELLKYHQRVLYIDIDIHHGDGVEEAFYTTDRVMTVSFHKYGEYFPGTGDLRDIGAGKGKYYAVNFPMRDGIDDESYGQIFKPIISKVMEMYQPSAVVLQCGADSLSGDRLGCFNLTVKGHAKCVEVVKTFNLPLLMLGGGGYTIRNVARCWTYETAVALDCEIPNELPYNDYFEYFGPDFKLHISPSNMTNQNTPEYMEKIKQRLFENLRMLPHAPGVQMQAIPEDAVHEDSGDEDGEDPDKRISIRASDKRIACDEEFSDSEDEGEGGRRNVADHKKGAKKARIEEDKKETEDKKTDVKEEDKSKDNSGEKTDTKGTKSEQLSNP

Histone deacetylase 8 = target: T2, Histone deacetylase 8 (Homo sapiens, UniProt Q9BY41); experiment: Inhibition of recombinant HDAC8 (unknown origin) expressed in Escherichia coli BL21 using MAL as substrate incubated for 15 mins prior to substrate addition measured after 60 mins by fluorescence plate reader analysis
T2 sequence (Q9BY41 whole entry): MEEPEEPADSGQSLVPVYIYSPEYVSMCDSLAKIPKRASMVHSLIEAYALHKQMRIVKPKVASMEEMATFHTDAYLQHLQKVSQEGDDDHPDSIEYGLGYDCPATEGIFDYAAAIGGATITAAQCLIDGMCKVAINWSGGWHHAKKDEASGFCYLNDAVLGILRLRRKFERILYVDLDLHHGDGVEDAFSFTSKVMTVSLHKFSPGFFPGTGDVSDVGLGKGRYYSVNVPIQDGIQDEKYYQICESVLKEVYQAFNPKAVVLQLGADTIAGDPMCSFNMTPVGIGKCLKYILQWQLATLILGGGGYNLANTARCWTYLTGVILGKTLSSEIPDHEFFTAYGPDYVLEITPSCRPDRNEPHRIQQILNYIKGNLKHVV

[2] = target: Histone deacetylase 3/NCoR1 (Homo sapiens, UniProt O15379); experiment: Inhibition of recombinant HDAC3-NCoR1 (unknown origin) using MAL as substrate incubated for 3 hrs prior to substrate addition measured after 60 mins by fluorescence plate reader analysis; assay type: protein-complex assay
Chain of Histone deacetylase 3/NCoR1 (O15379 whole entry): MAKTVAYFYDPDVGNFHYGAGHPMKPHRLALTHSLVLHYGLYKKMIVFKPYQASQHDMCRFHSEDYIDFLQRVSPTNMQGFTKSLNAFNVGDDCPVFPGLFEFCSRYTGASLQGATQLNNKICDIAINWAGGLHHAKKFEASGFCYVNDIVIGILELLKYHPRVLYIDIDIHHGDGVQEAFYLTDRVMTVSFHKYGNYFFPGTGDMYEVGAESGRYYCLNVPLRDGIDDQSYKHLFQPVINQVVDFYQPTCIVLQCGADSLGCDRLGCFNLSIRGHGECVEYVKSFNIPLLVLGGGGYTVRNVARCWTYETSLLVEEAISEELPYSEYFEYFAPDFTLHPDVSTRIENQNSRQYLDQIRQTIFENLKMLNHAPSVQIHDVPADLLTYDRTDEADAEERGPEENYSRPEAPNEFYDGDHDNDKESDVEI
Chain of Histone deacetylase 3/NCoR1 (O75376 whole entry, further chain): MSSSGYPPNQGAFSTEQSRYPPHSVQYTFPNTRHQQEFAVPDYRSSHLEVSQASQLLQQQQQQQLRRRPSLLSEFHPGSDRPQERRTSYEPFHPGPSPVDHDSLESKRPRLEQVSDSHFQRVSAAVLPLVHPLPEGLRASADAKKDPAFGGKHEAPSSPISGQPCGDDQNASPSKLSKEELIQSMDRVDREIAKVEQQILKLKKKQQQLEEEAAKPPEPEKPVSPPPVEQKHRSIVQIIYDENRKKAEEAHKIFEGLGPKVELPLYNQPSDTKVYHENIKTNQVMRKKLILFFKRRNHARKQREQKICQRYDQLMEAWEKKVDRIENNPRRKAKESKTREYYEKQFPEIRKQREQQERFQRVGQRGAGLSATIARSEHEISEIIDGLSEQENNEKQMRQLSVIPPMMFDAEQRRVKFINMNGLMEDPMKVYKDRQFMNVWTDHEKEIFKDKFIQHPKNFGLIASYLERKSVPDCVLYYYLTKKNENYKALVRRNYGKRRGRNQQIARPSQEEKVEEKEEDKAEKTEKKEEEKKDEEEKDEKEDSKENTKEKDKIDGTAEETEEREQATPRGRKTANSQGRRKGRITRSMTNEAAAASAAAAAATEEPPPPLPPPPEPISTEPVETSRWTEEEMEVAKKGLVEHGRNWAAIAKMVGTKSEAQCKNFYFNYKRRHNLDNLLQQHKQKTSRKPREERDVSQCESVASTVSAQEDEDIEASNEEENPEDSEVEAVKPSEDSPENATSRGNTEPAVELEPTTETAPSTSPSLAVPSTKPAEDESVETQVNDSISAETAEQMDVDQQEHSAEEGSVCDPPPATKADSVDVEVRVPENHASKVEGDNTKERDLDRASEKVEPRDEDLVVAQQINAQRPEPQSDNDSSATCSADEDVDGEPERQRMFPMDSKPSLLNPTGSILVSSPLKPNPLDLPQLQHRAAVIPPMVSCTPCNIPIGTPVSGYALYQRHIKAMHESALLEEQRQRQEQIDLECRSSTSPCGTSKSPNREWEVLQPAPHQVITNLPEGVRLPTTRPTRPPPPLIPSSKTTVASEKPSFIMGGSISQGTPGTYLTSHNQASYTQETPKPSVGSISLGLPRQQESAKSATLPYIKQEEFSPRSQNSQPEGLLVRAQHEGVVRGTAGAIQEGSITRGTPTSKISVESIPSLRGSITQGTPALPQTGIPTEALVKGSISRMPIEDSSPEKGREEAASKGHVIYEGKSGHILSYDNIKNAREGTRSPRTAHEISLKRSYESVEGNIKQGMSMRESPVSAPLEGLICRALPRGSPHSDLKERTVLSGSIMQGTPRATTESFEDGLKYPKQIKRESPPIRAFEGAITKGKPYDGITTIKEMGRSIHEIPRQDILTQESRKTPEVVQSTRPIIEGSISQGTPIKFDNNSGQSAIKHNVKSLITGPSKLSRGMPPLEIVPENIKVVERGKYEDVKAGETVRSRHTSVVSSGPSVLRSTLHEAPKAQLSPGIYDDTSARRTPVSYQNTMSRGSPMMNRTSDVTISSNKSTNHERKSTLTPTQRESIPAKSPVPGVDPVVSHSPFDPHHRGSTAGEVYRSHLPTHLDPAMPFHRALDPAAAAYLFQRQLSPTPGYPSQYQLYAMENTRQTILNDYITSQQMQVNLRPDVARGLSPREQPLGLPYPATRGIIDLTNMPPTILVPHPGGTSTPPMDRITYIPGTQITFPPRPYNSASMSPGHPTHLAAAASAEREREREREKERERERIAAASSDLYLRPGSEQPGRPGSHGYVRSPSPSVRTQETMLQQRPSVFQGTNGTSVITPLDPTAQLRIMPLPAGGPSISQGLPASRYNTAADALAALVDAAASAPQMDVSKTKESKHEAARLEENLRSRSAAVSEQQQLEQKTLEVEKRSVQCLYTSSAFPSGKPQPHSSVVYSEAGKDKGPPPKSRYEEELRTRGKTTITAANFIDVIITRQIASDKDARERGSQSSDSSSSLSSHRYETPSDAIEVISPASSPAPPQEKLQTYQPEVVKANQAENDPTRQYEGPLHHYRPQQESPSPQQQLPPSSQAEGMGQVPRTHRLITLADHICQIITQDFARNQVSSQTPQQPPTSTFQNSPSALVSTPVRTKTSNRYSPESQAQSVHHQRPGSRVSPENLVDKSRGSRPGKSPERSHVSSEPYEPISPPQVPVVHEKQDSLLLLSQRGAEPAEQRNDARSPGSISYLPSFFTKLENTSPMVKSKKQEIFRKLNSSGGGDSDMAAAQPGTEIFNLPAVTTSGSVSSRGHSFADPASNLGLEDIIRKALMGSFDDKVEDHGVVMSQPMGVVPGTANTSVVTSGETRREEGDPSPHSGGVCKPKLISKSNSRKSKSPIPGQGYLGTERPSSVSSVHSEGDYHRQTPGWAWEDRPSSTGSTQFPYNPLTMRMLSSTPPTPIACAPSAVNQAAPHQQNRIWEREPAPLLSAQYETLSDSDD

A549 = experiment: Cytotoxicity against human A549 cells assessed as growth inhibition by measuring cellular ATP level after 72 hrs by cell-titer glo assay; assay type: functional, cell-based; conditions: A549, 72 h
MCF7 = experiment: Cytotoxicity against human MCF7 cells assessed as growth inhibition by measuring cellular ATP level after 72 hrs by cell-titer glo assay; assay type: functional, cell-based; conditions: MCF7, 72 h
DU-145 = experiment: Cytotoxicity against human DU145 cells assessed as growth inhibition by measuring cellular ATP level after 72 hrs by cell-titer glo assay; assay type: functional, cell-based; conditions: DU-145, 72 h
HCT-116 = experiment: Cytotoxicity against human HCT116 cells assessed as growth inhibition by measuring cellular ATP level after 72 hrs by cell-titer glo assay; assay type: functional, cell-based; conditions: HCT-116, 72 h
Histone deacetylase 1 = Histone deacetylase 1 (Homo sapiens, UniProt Q13547); experiment: Inhibition of recombinant C-terminal FLAG-tagged HDAC1 (unknown origin) expressed in Escherichia coli BL21 using MAL as substrate incubated for 1 hr prior to substrate addition measured after 60 mins by fluorescence plate reader analysis
Chain of Histone deacetylase 1 (Q13547 whole entry): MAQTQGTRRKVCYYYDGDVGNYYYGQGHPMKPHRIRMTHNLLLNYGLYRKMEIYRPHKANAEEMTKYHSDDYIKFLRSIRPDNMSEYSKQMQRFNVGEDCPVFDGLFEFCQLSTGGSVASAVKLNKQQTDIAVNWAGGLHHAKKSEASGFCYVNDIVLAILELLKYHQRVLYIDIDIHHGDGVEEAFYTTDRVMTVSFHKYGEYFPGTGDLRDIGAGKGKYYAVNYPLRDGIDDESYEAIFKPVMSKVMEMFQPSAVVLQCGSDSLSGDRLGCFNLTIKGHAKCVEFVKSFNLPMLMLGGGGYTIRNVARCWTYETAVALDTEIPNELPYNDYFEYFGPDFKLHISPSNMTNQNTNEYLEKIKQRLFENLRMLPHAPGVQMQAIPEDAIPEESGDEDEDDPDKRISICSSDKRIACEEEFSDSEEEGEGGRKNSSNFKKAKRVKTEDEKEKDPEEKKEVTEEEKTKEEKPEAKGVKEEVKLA

SMILES: Nc1cc(CO)ccc1NC(=O)c1ccc(CNc2nccc(-c3cccnc3)n2)cc1
- IC50 [1]: > 20000 nM
- IC50 (Histone deacetylase 2): > 20000 nM
- IC50 (Histone deacetylase 8): > 20000 nM
- IC50 [2]: > 20000 nM

SMILES: Nc1cc(-c2ccccc2)ccc1NC(=O)c1ccc(CNc2nccc(-c3cccnc3)n2)cc1
- IC50 [1]: > 20000 nM
- IC50 (Histone deacetylase 2): 16700 nM
- IC50 (Histone deacetylase 8): > 20000 nM
- IC50 [2]: > 20000 nM

SMILES: Nc1ccccc1NC(=O)c1ccc(CSC2=N[C@@H](Cc3ccccc3)CS2)cc1
- IC50 [1]: > 20000 nM
- IC50 (Histone deacetylase 2): 580 nM
- IC50 (Histone deacetylase 8): > 20000 nM
- IC50 [2]: 509 nM

SMILES: CC(C)(C)[Si](C)(C)OCc1ccc(NC(=O)c2ccc(CNc3nccc(-c4cccnc4)n3)cc2)c(N)c1
- IC50 [1]: > 20000 nM
- IC50 (Histone deacetylase 2): > 20000 nM
- IC50 (Histone deacetylase 8): > 20000 nM
- IC50 [2]: > 20000 nM

SMILES: Nc1cc(O)ccc1NC(=O)c1ccc(CNc2nccc(-c3cccnc3)n2)cc1
- IC50 [1]: > 20000 nM
- IC50 (Histone deacetylase 2): 1430 nM
- IC50 (Histone deacetylase 8): > 20000 nM
- IC50 [2]: 719 nM

SMILES: Nc1ccccc1NC(=O)c1ccc(CN=C2N[C@@H](c3ccccc3)[C@H](c3ccccc3)S2)cc1
- IC50 (Histone deacetylase 2): 538 nM
- IC50 (Histone deacetylase 8): 12600 nM
- IC50 [2]: 388 nM

SMILES: Nc1ccccc1NC(=O)c1ccc(CNC2=NC(=O)C(Cc3ccccc3)N2)cc1 (racemic)
- IC50 [1]: > 20000 nM
- IC50 (Histone deacetylase 2): 66 nM
- IC50 (Histone deacetylase 8): 13000 nM
- IC50 (A549): > 50000 nM
- IC50 [2]: 30 nM
- IC50 (MCF7): > 50000 nM
- IC50 (DU-145): > 50000 nM
- IC50 (HCT-116): 16600 nM

SMILES: CC(=O)N1C(NCc2ccc(C(=O)Nc3ccccc3N)cc2)=NC(=O)C1Cc1c[nH]c2ccccc12 (racemic)
- IC50 [1]: > 20000 nM
- IC50 (Histone deacetylase 2): 116 nM
- IC50 (Histone deacetylase 8): 24300 nM
- IC50 [2]: 70 nM

SMILES: Nc1ccccc1NC(=O)c1ccc(CSC2=N[C@@H](c3ccccc3)CS2)cc1
- IC50 [1]: > 20000 nM
- IC50 (Histone deacetylase 2): 440 nM
- IC50 (Histone deacetylase 8): 5160 nM
- IC50 [2]: 63 nM

SMILES: O=C(CCCCCCC(=O)Nc1ccccc1)NO [VORINOSTAT]
- IC50 (A549): 2270 nM
- IC50 (MCF7): 2290 nM

SMILES: Nc1ccccc1NC(=O)c1ccc(CSC2=N[C@@H](Cc3c[nH]c4ccccc34)CS2)cc1
- IC50 [1]: > 20000 nM
- IC50 (Histone deacetylase 2): 920 nM
- IC50 (Histone deacetylase 8): > 20000 nM
- IC50 (A549): 9530 nM
- IC50 [2]: 890 nM
- IC50 (MCF7): 9910 nM
- IC50 (DU-145): 2800 nM
- IC50 (HCT-116): 3640 nM

SMILES: Nc1ccccc1NC(=O)c1ccc(CN=C2N[C@H](c3ccccc3)CS2)cc1
- IC50 [1]: > 20000 nM
- IC50 (Histone deacetylase 2): 56 nM
- IC50 (Histone deacetylase 1): 370 nM
- IC50 (Histone deacetylase 8): 10700 nM
- IC50 [2]: 79 nM

SMILES: Nc1cc(C(=O)OCc2ccccc2)ccc1NC(=O)c1ccc(CNc2nccc(-c3cccnc3)n2)cc1
- IC50 [1]: > 20000 nM
- IC50 (Histone deacetylase 2): > 20000 nM
- IC50 (Histone deacetylase 8): > 20000 nM
- IC50 [2]: > 20000 nM

SMILES: Nc1ccccc1NC(=O)c1ccc(CNC2=N[C@H](c3ccccc3)[C@@H](c3ccccc3)S2)cc1
- IC50 (Histone deacetylase 2): 425 nM
- IC50 (Histone deacetylase 8): 14900 nM
- IC50 [2]: 287 nM

SMILES: Nc1ccccc1NC(=O)c1ccc(CNC2=N[C@@H](Cc3ccccc3)CS2)cc1
- IC50 [1]: > 20000 nM
- IC50 (Histone deacetylase 2): 104 nM
- IC50 (Histone deacetylase 1): 920 nM
- IC50 (Histone deacetylase 8): 34900 nM
- IC50 (A549): 6370 nM
- IC50 [2]: 52 nM
- IC50 (MCF7): 3090 nM
- IC50 (DU-145): 5450 nM
- IC50 (HCT-116): 1950 nM

SMILES: Nc1ccccc1NC(=O)c1ccc(CN=C2NC[C@H](c3ccccc3)S2)cc1
- IC50 (Histone deacetylase 2): 81 nM
- IC50 (Histone deacetylase 1): 550 nM
- IC50 (Histone deacetylase 8): 2300 nM
- IC50 [2]: 12 nM

SMILES: Nc1ccccc1NC(=O)c1ccc(CN=C2N[C@H](Cc3ccccc3)CS2)cc1
- IC50 [1]: > 20000 nM
- IC50 (Histone deacetylase 2): 82 nM
- IC50 (Histone deacetylase 1): 410 nM
- IC50 (Histone deacetylase 8): 12700 nM
- IC50 [2]: 36 nM

SMILES: CC(=O)N1C(NCc2ccc(C(=O)Nc3ccccc3N)cc2)=NC(=O)C1Cc1ccccc1 (racemic)
- IC50 [1]: > 20000 nM
- IC50 (Histone deacetylase 2): 260 nM
- IC50 (Histone deacetylase 8): 22700 nM
- IC50 [2]: 83 nM

SMILES: COc1ccc(NC(=O)c2ccc(CNc3nccc(-c4cccnc4)n3)cc2)c(N)c1
- IC50 [1]: > 20000 nM
- IC50 (Histone deacetylase 2): 248 nM
- IC50 (Histone deacetylase 8): > 20000 nM
- IC50 [2]: 111 nM

SMILES: Nc1ccccc1NC(=O)c1ccc(CNC2=N[C@@H](c3ccc(O)cc3)CS2)cc1
- IC50 (Histone deacetylase 2): 44 nM
- IC50 (Histone deacetylase 1): 180 nM
- IC50 (Histone deacetylase 8): 15000 nM
- IC50 [2]: 16 nM

SMILES: Nc1cc2ccccc2cc1NC(=O)c1ccc(CNc2nccc(-c3cccnc3)n2)cc1
- IC50 [1]: > 20000 nM
- IC50 (Histone deacetylase 2): > 20000 nM
- IC50 (Histone deacetylase 8): > 20000 nM
- IC50 [2]: 630 nM

SMILES: Nc1ccccc1NC(=O)c1ccc(CNC2=NC[C@@H](c3ccccc3)S2)cc1
- IC50 (Histone deacetylase 2): 111 nM
- IC50 (Histone deacetylase 8): 1400 nM
- IC50 [2]: 23 nM

SMILES: Nc1cc(C(=O)O)ccc1NC(=O)c1ccc(CNc2nccc(-c3cccnc3)n2)cc1
- IC50 [1]: > 20000 nM
- IC50 (Histone deacetylase 2): > 20000 nM
- IC50 (Histone deacetylase 8): > 20000 nM
- IC50 [2]: > 20000 nM

SMILES: Nc1ccccc1NC(=O)c1ccc(CNC2=NC(=O)C(Cc3c[nH]c4ccccc34)N2)cc1 (racemic)
- IC50 [1]: > 20000 nM
- IC50 (Histone deacetylase 2): 78 nM
- IC50 (Histone deacetylase 1): 190 nM
- IC50 (Histone deacetylase 8): > 20000 nM
- IC50 [2]: 104 nM

SMILES: Nc1cc(Br)ccc1NC(=O)c1ccc(CNc2nccc(-c3cccnc3)n2)cc1
- IC50 [1]: > 20000 nM
- IC50 (Histone deacetylase 2): > 20000 nM
- IC50 (Histone deacetylase 8): > 20000 nM
- IC50 [2]: 4720 nM

SMILES: CC(C)(C)OC(=O)N1C(NCc2ccc(C(=O)Nc3ccccc3N)cc2)=NC(=O)C1Cc1c[nH]c2ccccc12 (racemic)
- IC50 [1]: > 20000 nM
- IC50 (Histone deacetylase 2): 48 nM
- IC50 (Histone deacetylase 1): 500 nM
- IC50 (Histone deacetylase 8): 27200 nM
- IC50 [2]: 40 nM
